Key:
[1] = Formulation screening: compatibility of nintedanib esylate with pirfenidone and osmolality adjusting agents (visual appearance); type: physicochemical
Protocol: Formulation screening of stand alone nintedanib esylate and in combination with pirfenidone were conducted. Commonly used ionic osmolality adjusting agents include sodium chloride, sodium citrate, magnesium chloride were evaluated as excipients. In addition, mannitol and propylene glycol, which are […] osmolality adjusting agents, were also tested.
The resulting solutions, if not immediately precipitated, were filled into clear Type I glass vials and sealed with a Teflon lined rubber stopper and aluminum crimp cap. The test solutions were stored at ambient room condition in the dark. Visual appearance was periodically assessed within 24 hours and periodically thereafter. Table 31 summarizes the initial formulation screening results.

[2] = Plasma and lung pharmacokinetics of nintedanib esylate, oral vs intratracheal aerosol; type: in vivo, C57BL/6 mice; details: for adverse effect (dyspnea): mice; for Cmax / half-life / AUC(0-t): female, C57BL/6, mouse; for half-life: read-out: Elimination half-life (alpha-phase)
[3] = Inhaled pharmacokinetics of nintedanib salt forms (intratracheal); type: in vivo, C57BL/6 mice; details: for half-life: C57BL/6, mouse, 1 mg/kg, read-out: Elimination half-life (alpha-phase); for Cmax: read-out: Cmax
[4] = Tier 1: nintedanib esylate-excipient compatibility study; type: physicochemical
Protocol: Test solution 101-01-16-00 was filtered through a 0.22 micron PVDF filter, all other formulations were not filtered. The test solutions were filled into 10 mL clear Type I glass vials and sealed with Teflon-lined rubber stopper and aluminum crimp cap.

[5] = Inhaled pharmacokinetics of fixed combination nintedanib esylate and pirfenidone; type: in vivo, C57BL/6 mice; details: 10.0 mg/kg each IT; for half-life: read-out: Elimination half-life (alpha-phase)
Protocol: Plasma and lung tissue samples were taken 2, 5, 10, 20, 40 min and 1, 2, and 4 hours post dose. Nintedanib was extracted and quantitated as μg/mL plasma and μg/gram lung tissue.

[6] = Tier 3: compatibility in 30 mM NaCl with a second excipient; type: physicochemical
Protocol: Compatibility of nintedanib esylate and nintedanib esylate plus pirfenidone control with sodium chloride and a second excipient was assessed. […] The test solutions were filled into 10 mL clear Type I glass vials with Teflon lined rubber stopper and aluminum crimp caps and stored at ambient room condition away from light.

[7] = Therapeutic bleomycin model: dose levels and lung pharmacokinetic comparison; type: in vivo, Sprague Dawley rats; details: Oral Gavage (PO) 60.0 mg/kg; rat
[8] = tested on: bleomycin pulmonary fibrosis; test: Therapeutic bleomycin pulmonary fibrosis model: Ashcroft fibrosis score, hydroxyproline; type: in vivo, Sprague Dawley rats; details: Oral Gavage (PO) 60 mg/kg BID; bleomycin rats
Protocol: Briefly, acclimated Sprague Dawley male rats (c.a. 253 grams at first dosing) were administered bleomycin on days 1, 2, 3 and 6 by the oropharyngeal (OP) route. On the eighth day, treatment was initiated with either saline or nintedanib. […] Ten animals were enrolled into each dosing group. […] All animals were euthanized on day 28d. Body weights were collected throughout the study, with lung weights at termination (Table 55). Left lungs were extracted and measured for hydroxyproline content, while […] were subjected to histology for Ashcroft fibrosis score determination (Table 56).

[9] = Therapeutic bleomycin model: body weight gain, lung weight-to-body weight ratio, tolerability; details: Oral Gavage (PO), dose group printed 0 mg/kg, BID; bleomycin rats
[10] = Compatibility of nintedanib esylate with container system and membrane filter (nylon filter, LDPE vials); type: physicochemical
Source text: Compatibility of Nintedanib Esylate with Container System and Type of Membrane Filter: The objective of this study is to determine the suitability of low density polyethylene (LDPE) vials and nylon filters for use with nintedanib esylate standalone and nintedanib esylate plus pirfenidone combination formulations. The test samples were stored at ambient room condition and periodically check for precipitation or crystallization.

[11] = 100.0 mg/kg PO, Lung (whole lung homogenate)
[12] = inhaled or intranasal, 2.5 mg/kg IT, Lung (whole lung homogenate)
[13] = inhaled or intranasal, 2.5 mg/kg IT, Plasma
[14] = inhaled or intranasal, 10.0 mg/kg IT, Lung (whole lung homogenate)
[15] = inhaled or intranasal, 10.0 mg/kg IT, Plasma
[16] = 1 mg/kg (base equivalent) IT, mice
[17] = female, C57BL/6, mouse, inhaled or intranasal, Lung (whole lung homogenate)
[18] = female, C57BL/6, mouse, inhaled or intranasal, Plasma

Compound: COC(=O)c1ccc2c(c1)NC(=O)/C2=C(\Nc1ccc(N(C)C(=O)CN2CCN(C)CC2)cc1)c1ccccc1 [Nintedanib esylate]
- compatibility with sodium citrate ([1]; aqueous solution): incompatible
- compatibility with sodium chloride ([1]; sodium chloride at 30 mM): may be compatible
- compatibility with sodium chloride ([1]; sodium chloride at 60 mM or higher): incompatible
- adverse effect (dyspnea) ([2]; 2.5 mg/kg IT): not observed
- AUC 0-last ([2]; 2.5 mg/kg IT, Lung (whole lung homogenate)): 67.8 mg·h/kg
- adverse effect (dyspnea) ([2]; 10 mg/kg IT): caused dyspnea
- AUC 0-last ([2]; 10.0 mg/kg IT, Lung (whole lung homogenate)): 167.8 mg·h/kg
- AUC 0-last [2, 11]: 24.1 mg·h/kg
- Cmax [2, 12]: 57500 ng/g
- half-life [2, 12]: 3.8 min
- AUC(0-t) [2, 13]: 200 ng·h/mL
- Cmax [2, 13]: 700 ng/mL
- half-life [2, 13]: 2.3 min
- Cmax [2, 14]: 250000 ng/g
- half-life [2, 14]: 5.6 min
- AUC(0-t) [2, 15]: 600 ng·h/mL
- Cmax [2, 15]: 2700 ng/mL
- half-life [2, 15]: 2.3 min
- Cmax [2, 11]: 12100 ng/g
- AUC(0-t) ([2]; 100.0 mg/kg PO, Plasma): 1800 ng·h/mL
- Cmax ([2]; 100.0 mg/kg PO, Plasma): 600 ng/mL
- half-life ([2]; 100.0 mg/kg PO, Plasma): 112 min
- Lung AUC [3, 16]: about 20 mg·hr/kg
- lung half-life [3, 16]: about 3 minutes
- half-life ([3]; female, lung (whole lung homogenate), inhaled or intranasal, lung (whole lung homogenate), 1.0 mg/kg IT, C57BL/6 mice): 2.9 min
- half-life ([3]; female, plasma, inhaled or intranasal, plasma, 1.0 mg/kg IT, C57BL/6 mice): 2 min
- Cmax ([3]; female, mouse, inhaled or intranasal, lung (whole lung homogenate), 1.0 mg/kg IT, C57BL/6 mice): 34500 ng/g
- Cmax ([3]; female, mouse, inhaled or intranasal, plasma, 1.0 mg/kg IT (base equivalent), C57BL/6 mice): 400 ng/mL
- AUC(0-t) ([3]; female, mouse, inhaled or intranasal, plasma, 1.0 mg/kg IT, C57BL/6 mice): 200 ng·h/mL
- AUC 0-last ([3]; lung (whole lung homogenate), 1.0 mg/kg IT, C57BL/6 mice): 21.7 mg·h/kg
- compatibility with clear borosilicate glass vial [4]: not compatible
- compatibility with PVDF membrane filter ([4]; 0.22 μm): not compatible
- AUC 0-last ([5]; Lung (whole lung homogenate)): 68.4 mg·h/kg
- Cmax [5, 17]: 171000 ng/g
- half-life [5, 17]: 1.8 min
- AUC(0-t) [5, 18]: 1000 ng·h/mL
- Cmax [5, 18]: 2800 ng/mL
- half-life [5, 18]: 7.7 min
- stability by itself in 30 mM NaCl [6]: not stable
- Lung AUC [7]: 29.3 mg·h/kg
- Lung Cmax [7]: 4.4 µg/g
- Fibrosis Score (SD) (Ashcroft) [8]: 2.3 (0.45)
- Fibrosis Score, Delta to Vehicle (%) [8]: 11.5%
- Body Weight Gain, Delta to Sham (%) [9]: −46.9%
- compatibility with NaCl ([10]; NaCl at 30 mM, in absence of pirfenidone, irrespective of container type and filtration material): incompatible
- suitability of clear borosilicate glass vial ([10]; even at 0.5 mg/mL nintedanib esylate): not suitable
- suitability of LDPE vial ([10]; nintedanib esylate and nintedanib esylate in 1.5% propylene glycol solutions): suitable
